Source: patent publication US8445207B2, “Genes based on thalidomide, valproic acid and methotrexate treatment for screening of drug inducing teratogenicity and screening method using thereof” (priority 2009, dated 2013)

Tested on: JEG-3 (human placental choriocarcinoma cell line)
Experiment: Oligo microarray gene expression in drug-treated JEG-3 (Cy5 treated / Cy3 control)
Format: cell-based
Conditions: treated at IC30, up-regulated gene
Protocol: Thalidomide, valproic acid, and methotrexate were treated to human placental choriocarcinoma cell line at the concentrations determined above (Inhibition concentration: the concentration that can kill approximately 30% of the total cells, that is the concentration of 70% viability, IC30). mRNA was extracted from the drug treated cell line, followed by synthesis of cDNA which was labeled with Cy5. The non-treated control was labeled with Cy3. The fluorescence labeled cDNA was hybridized with 41K (thalidomide), 44K (valproic acid, methotrexate) human whole genome oligomicroarray chips (Agilent, USA), followed by fluorescent image scanning to analyze gene expression patterns (see FIG. 4). Volcano Plot of each substance was also attached. Y axis indicates probability (generally converted by −log 10). X axis indicates differential expression, which is presented by log-ratio.
Total RNA was separated from the treated cell by using trizol reagent (Invitrogen Life Technologies, USA) according to the manufacture's instructions, followed by purification using RNeasy mini kit (Qiagen, USA). Genomic DNA was eliminated during RNA purification using RNase-free DNase set (Qiagen, USA).
30 μg of the total RNA obtained above and 2 μg (1 μg/μl) of oligo (dT) primer were mixed, followed by reaction at 65° C. for 10 minutes. Annealing was performed in ice right after the reaction. Reagents were prepared as shown in Table 1 for reverse transcription of the annealed RNA.
The total RNA separated from the control group JEG-3 cells was labeled with Cy3-dUTP (green) and the total RNA separated from the experiment group JEG-3 cells treated with thalidomide, valproic acid and methotrexate was labeled with Cy5-dUTP (red). At this time, the two samples were mixed and purified by Microcon YM-30 column (Millipore, USA).
Hybridization and washing were performed by the manufacturer's (GenoCheck, Korea) instructions. Particularly, hybridization was performed in a 62° C. oven for 12 hours. As a DNA microarray chip, 44 k whole human genome oligo microarray (Agilent, USA) was used. After washing (2 minutes with 2×SSC/0.1% SDS, three minutes with 1×SSC, 2 minutes with 0.2×SSC), the slide was dried by centrifugation at 800 rpm for 3 minutes.
Hybridization image on the slide was scanned with Genepix 4000B (Axon Instruments, USA). Fluorescence image of the chip on which non-hybridized genes had been washed out was obtained by using laser fluorescence scanner. Green fluorescence image indicates the activity of gene specifically expressed in the control group and red fluorescence image indicates the activity of gene specifically expressed in the experimental group. […] Scanned image was analyzed by using GenePix 4.1 software (Axon Instruments, USA) to calculate gene expression rate.

[1] = (j) Response to oxidative stress
[2] = (k) common gene which has no function

## CCCC(CCC)C(=O)O [VPA, valproic acid]
(h) Nervous system development
  Ratio of intermediate value, gene GSTM3 (NM_000849, GLUTATHION E S-TRANSFERASE M3 (BRAIN)): 3.69
  Ratio of intermediate value, gene HEYL (NM_014571, HAIRY/ENHANCER-OF-SPLIT RELATED WITH YRPW MOTIF-LIKE): 2.13
  Ratio of intermediate value, gene IRS2 (NM_003749, INSULIN RECEPTOR SUBSTRATE 2): 2.09
  Ratio of intermediate value, gene KCNQ2 (NM_172109, POTASSIUM VOLTAGE-GATED CHANNEL, KQT-LIKE SUBFAMILY, MEMBER 2): 4.41
  Ratio of intermediate value, gene KDELC1 (NM_015831, ACETYLCHOLINESTERASE (YT BLOOD GROUP)): 2.47
  Ratio of intermediate value, gene KIF5C (AB011103, KINESIN HEAVY CHAIN NEURON-SPECIFIC 2): 11.94
  Ratio of intermediate value, gene MAPT (NM_016835, MICROTUBULE-ASSOCIATED PROTEIN TAU): 3.18
  Ratio of intermediate value, gene MYLIP (NM_013262, MYOSIN REGULATORY LIGHT CHAIN INTERACTING PROTEIN): 2.88
  Ratio of intermediate value, gene NRXN3 (NM_004796, NEUREXIN 3): 2.25
  Ratio of intermediate value, gene PPIL6 (NM_000115, ENDOTHELIN RECEPTOR TYPE B): 3.13
  Ratio of intermediate value, gene PRPS1 (NM_002764, PHOSPHORIBOSYL PYROPHOSPHATE SYNTHETASE 1): 2.12
  Ratio of intermediate value, gene SCG10; SGC10; SCGN10 (S82024, STATHMIN-LIKE 2): 2.41
  Ratio of intermediate value, gene SDFR1 (NM_012428, NEURO-PLASTIN): 2.26
  Ratio of intermediate value, gene SELM (BX537571, FYN ONCOGENE RELATED TO SRC, FGR, YES): 3.34
  Ratio of intermediate value, gene SEMA6C (NM_030913, SEMA DOMAIN, TRANSMEMBRANE DOMAIN (TM), AND CYTOPLASMIC DOMAIN, (SEMAPHORIN) 6C): 2.77
  Ratio of intermediate value, gene TUBB2 (NM_001069, TUBULIN, BETA 2A): 3.11
  Ratio of intermediate value, gene TWSG1 (NM_020648, TWISTED GASTRULATION HOMOLOG 1 (DROSOPHILA)): 2.56
(i) Neuron apoptosis
  Ratio of intermediate value, gene GCLM (CR598364, GLUTAMATE-CYSTEINE LIGASE, MODIFIER SUBUNIT): 2.61
  Ratio of intermediate value, gene GTF2A1 (BC028148, TUMOR NECROSIS FACTOR (TNF SUPERFAMILY, MEMBER 2)): 2.15
  Ratio of intermediate value, gene HPCAL4 (BC028066): 6.07
  Ratio of intermediate value, gene KRAS2 (BC029545, V-HA-RAS HARVEY RAT SARCOMA VIRAL ONCOGENE HOMOLOG): 2.62
  Ratio of intermediate value, gene LIG4 (NM_002312, LIGASE IV, DNA, ATP-DEPENDENT): 2.19
[1]
  Ratio of intermediate value, gene DKFZp761B1514 (AK025742, UNCOUPLING PROTEIN 2 (MITOCHONDRIAL, PROTON CARRIER)): 2.39
  Ratio of intermediate value, gene DYRK3 (BC030009, SELENOPROTEIN P, PLASMA, 1): 5.57
  Ratio of intermediate value, gene FTH1 (BC006523, SERUM/GLUCOCORTICOID REGULATED KINASE 2): 2.13
  Ratio of intermediate value, gene GPX3 (NM_002084, GLUTATHIONE PEROXIDASE 3 (PLASMA)): 2.10
  Ratio of intermediate value, gene HMOX1 (NM_002133, HEME OXYGENASE (DECYCLING) 1): 2.85
  Ratio of intermediate value, gene MOSPD1 (H18681, SULFIREDOXIN 1 HOMOLOG (S. CEREVISIAE)): 3.56
  Ratio of intermediate value, gene RPL4 (AK094940, GLUTAMATE-CYSTEINE LIGASE, CATALYTIC SUBUNIT): 2.49
  Ratio of intermediate value, gene TXNIP (NM_006472, THIOREDOXIN INTERACTING PROTEIN): 4.52
[2]
  Ratio of intermediate value, gene ATP10B (AB018258, ATPase, Class V, type 10B): 2.03
  Ratio of intermediate value, gene BQ186674 (cDNA clone UI-E-EJ1-ajr-f-10-0-UI, Hypothetical gene supported by AF086204): 2.79
  Ratio of intermediate value, gene BX111592 (Transcribed locus, moderately similar to XP_066443.6 PREDICTED: similar to paraneoplastic antigen like 6A): 1.50
  Ratio of intermediate value, gene CGA (NM_000735, Glycoprotein hormones, alpha polypeptide): 2.14
  Ratio of intermediate value, gene COBLL1 (BX649112, COBL-like 1): 1.52
  Ratio of intermediate value, gene CYP19A1 (AK023571, Cytochrome P450, family 19, subfamily A, polypeptide 1): 1.78
  Ratio of intermediate value, gene FLJ11017 (AK001879, Hypothetical protein FLJ11017): 1.87
  Ratio of intermediate value, gene GLCCI1 (AK126731, Glucocorticoid induced transcript 1): 2.27
  Ratio of intermediate value, gene KIAA0310 (AB002308, KIAA0310): 1.59
  Ratio of intermediate value, gene MGC27016 (AK125877, Hypothetical protein MGC27016): 2.62
  Ratio of intermediate value, gene NCOA3 (NM_181659, Nuclear receptor coactivator 3): 1.62
  Ratio of intermediate value, gene RGS2 (BC042755, Regulator of G-protein signalling 2, 24 kDa): 3.04
  Ratio of intermediate value, gene SIAT7A (BC063830, ST6 (alpha-N-acetyl-neuraminyl-2,3-beta-galactosyl-1,3)-N-acetylgalactosaminide alpha-2,6-sialyltransferase 1): 1.69
  Ratio of intermediate value, gene SIAT8D (NM_005668, ST8 alpha-N-acetyl-neuraminide alpha-2,8-sialyltransferase 4): 1.79
  Ratio of intermediate value, gene SLC7A8 (Y18483, Solute carrier family 7 (cationic amino acid transporter, y+ system), member 8): 2.48
  Ratio of intermediate value, gene SLC40A1 (AK023574, Solute carrier family 40 (iron-regulated transporter), member 1): 1.70
  Ratio of intermediate value, gene TFCP2L4 (BC036890, Grainyhead-like 3 (Drosophila)): 3.12
  Ratio of intermediate value, gene TTF2 (AB209845, Transcription termination factor, RNA polymerase II): 1.81
  Ratio of intermediate value, gene TUBB3 (AK122757, Tubulin, beta 3): 1.70
  Ratio of intermediate value, gene TncRNA (AF001893, Trophoblast-derived noncoding RNA): 3.61
